According to US10874599B2, “Composition for inhibiting micro-organisms” (Clariant International Ltd., priority 2016, dated 2020):

Assays:
Assay in all cases: MIC agar dilution test
Format in all cases: cell-based
Fusarium solani = settings: Experimental 1; Sabouraud-4% Dextrose-Agar, pH 5.6 (+/−0.2)
Protocol: (§1) For testing the inhibition of bacteria, Composition 6 from Table 1 above was diluted in butylpolyglycol and added in different concentrations to liquid Caso-Agar at 50° C. and is buffered to pH 7 (+/−0.2). For testing the inhibition of yeast and mold, the Composition 6 was diluted in butylpolyglycol and added in different concentrations to liquid Sabouraud-4% Dextrose-Agar at 50° C. and is buffered to pH 5.6 (+/−0.2). Each of the solutions is poured into a petri-dish and inoculated with the same amount of bacteria, yeast or mold respectively. The minimum inhibitory concentration (MIC) is the lowest concentration of Composition 6 that inhibits the growth of the respective microorganism where the next lowest dilution fails to inhibit the growth of said microorganism.
(§2) A similar experiment was carried out versus Experimental 1. The composition employed in this second experiment is almost identical in composition to Composition 6 from Table 1 above, differing only slightly in the exact levels of the components. Composition 6a is according to the first aspect of the present invention. Here, a comparison is made versus the efficacy of phenoxyethanol, alone and in combination with composition 6a.

Escherichia coli = settings: Experimental 1; Caso-Agar, pH 7 (+/−0.2)
Protocol: as §1, §2

Penicillium minioluteum = settings: Experimental 1; Sabouraud-4% Dextrose-Agar, pH 5.6 (+/−0.2)
Protocol: as §1, §2

Citrobacter freundii = settings: Experimental 1; Caso-Agar, pH 7 (+/−0.2)
Protocol: as §1, §2

Saccharomyces cerevisiae = settings: Experimental 1; Sabouraud-4% Dextrose-Agar, pH 5.6 (+/−0.2)
Protocol: as §1, §2

Aspergillus brasiliensis = settings: Experimental 1; Sabouraud-4% Dextrose-Agar, pH 5.6 (+/−0.2)
Protocol: as §1, §2

Penicillium funicolosium = settings: Experimental 1; Sabouraud-4% Dextrose-Agar, pH 5.6 (+/−0.2)
Protocol: as §1, §2

Enterobacter gergovia = settings: Experimental 1; Caso-Agar, pH 7 (+/−0.2)
Protocol: as §1, §2

Pseudomonas aeruginosa = settings: Experimental 1; Caso-Agar, pH 7 (+/−0.2)
Protocol: as §1, §2

Staphylococcus aureus = settings: Experimental 1; Caso-Agar, pH 7 (+/−0.2)
Protocol: as §1, §2

Enterobacter aerogenes = settings: Experimental 1; Caso-Agar, pH 7 (+/−0.2)
Protocol: as §1, §2

Aspergillus terreus = settings: Experimental 1; Sabouraud-4% Dextrose-Agar, pH 5.6 (+/−0.2)
Protocol: as §1, §2

Candida parapsilosis = settings: Experimental 1; Sabouraud-4% Dextrose-Agar, pH 5.6 (+/−0.2)
Protocol: as §1, §2

Klebsiella pneumoniae = settings: Experimental 1; Caso-Agar, pH 7 (+/−0.2)
Protocol: as §1, §2

Candida albicans = settings: Experimental 1; Sabouraud-4% Dextrose-Agar, pH 5.6 (+/−0.2)
Protocol: as §1, §2

Malassezia furfur = settings: Experimental 1; Sabouraud-4% Dextrose-Agar, pH 5.6 (+/−0.2)
Protocol: as §1

Cornyebacterium jeikeium = settings: Experimental 1; Caso-Agar, pH 7 (+/−0.2)
Protocol: as §1

Streptococcus mutans = settings: Experimental 1; Caso-Agar, pH 7 (+/−0.2)
Protocol: as §1

Staph. Epidermis = settings: Experimental 1; Caso-Agar, pH 7 (+/−0.2)
Protocol: as §1

Brevibacterium linens = settings: Experimental 1; Caso-Agar, pH 7 (+/−0.2)
Protocol: as §1

Cornyebacterium xerosis = settings: Experimental 1; Caso-Agar, pH 7 (+/−0.2)
Protocol: as §1

Malassezia pachydermatis = settings: Experimental 1; Sabouraud-4% Dextrose-Agar, pH 5.6 (+/−0.2)
Protocol: as §1

Malassezia sympiodalis = settings: Experimental 1; Sabouraud-4% Dextrose-Agar, pH 5.6 (+/−0.2)
Protocol: as §1

Substance: Sorbitan Caprylate
- MIC (Fusarium solani): 800 ppm
- MIC (Escherichia coli): 10000 ppm
- MIC (Penicillium minioluteum): 400 ppm
- MIC (Citrobacter freundii): 10000 ppm
- MIC (Saccharomyces cerevisiae): 600 ppm
- MIC (Aspergillus brasiliensis): 800 ppm
- MIC (Penicillium funicolosium): 400 ppm
- MIC (Enterobacter gergovia): 10000 ppm
- MIC (Pseudomonas aeruginosa): 10000 ppm
- MIC (Staphylococcus aureus): 800 ppm
- MIC (Enterobacter aerogenes): 10000 ppm
- MIC (Aspergillus terreus): 800 ppm
- MIC (Candida parapsilosis): 800 ppm
- MIC (Klebsiella pneumoniae): 800 ppm
- MIC (Candida albicans): 800 ppm
- MIC (Malassezia furfur): 600 ppm
- MIC (Cornyebacterium jeikeium): 4000 ppm
- MIC (Streptococcus mutans): 2000 ppm
- MIC (Staph. Epidermis): 10000 ppm
- MIC (Brevibacterium linens): 4000 ppm
- MIC (Cornyebacterium xerosis): 2000 ppm
- MIC (Malassezia pachydermatis): 400 ppm
- MIC (Malassezia sympiodalis): 400 ppm
